The source of these data is US6204293A, “Inhibitors of protein isoprenyl transferases” (University of Pittsburgh, priority 1998, dated 2001).

Structures can show the parent of a compound that is named as a salt.

A word on the % inhibition: it is the percentage by which the read-out fell short of the control. A higher % inhibition goes with a strong effect. The inhibition is how much of the control response was suppressed.

T1 sequence (Q02293 whole entry, one chain of several): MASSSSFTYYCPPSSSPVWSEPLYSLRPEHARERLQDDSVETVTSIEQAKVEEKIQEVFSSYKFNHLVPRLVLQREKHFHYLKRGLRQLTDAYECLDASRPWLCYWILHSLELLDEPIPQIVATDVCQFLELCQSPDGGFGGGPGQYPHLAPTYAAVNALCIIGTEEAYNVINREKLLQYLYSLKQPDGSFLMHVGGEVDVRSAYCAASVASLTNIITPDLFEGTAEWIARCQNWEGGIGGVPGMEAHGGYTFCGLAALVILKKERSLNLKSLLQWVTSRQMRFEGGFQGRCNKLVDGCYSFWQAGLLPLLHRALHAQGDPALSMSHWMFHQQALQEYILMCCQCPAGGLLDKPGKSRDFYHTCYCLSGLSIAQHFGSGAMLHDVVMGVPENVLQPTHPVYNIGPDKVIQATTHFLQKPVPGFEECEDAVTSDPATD

The first experiment has as its target T1, Rat brain protein farnesyltransferase (Rattus norvegicus, UniProt Q02293+Q04631).
T1 construct: Rat brain protein farnesyltransferase activity is measured; from tissue; host or cells: rat brain
Put plainly: % inhibition of farnesylation, scintillation proximity assay with biotin-K Ras B fragment. Type of experiment: biochemical. The following applies: Table 3; 1 × 10^-7 M. The essentials:
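Scintillation proximity read-out of farnesylation, using a biotinylated K Ras B fragment (0.1 mM final) in place of biotin-lamin. Enzyme purified from rat brain; results given as % inhibition.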
Background: In a scintillation proximity assay essentially only radioactivity close to the scintillant gives light.
Take `CSCC[C@H](NC(=O)c1ccc(CN2CCC[C@@H]2COCc2ccccc2)cc1-c1ccccc1C)C(=O)O` [Example 993]: the “% inhibition at 1 × 10^-7 M” value was 90%.

Staying with this experiment, now noted: Table 4; 1 × 10^-8 M.
Regarding `CSCC[C@H](NC(=O)c1ccc(CN2CCC[C@H]2COc2ccccc2)cc1-c1ccccc1C)C(=O)O` [Example 991], the “% inhibition at 1 × 10^-8 M” value turned out to be 69%. In the case of `CSCC[C@H](NC(=O)c1ccc(CN2CCC[C@H]2COCC2CCCCC2)cc1-c1ccccc1C)C(=O)O` [Example 992], the “% inhibition at 1 × 10^-8 M” value was 93%. As to `CCSC[C@H](CCc1ccccc1)NCc1ccc(C(=O)N[C@@H](CCSC)C(=O)O)c(-c2ccccc2C)c1` [Example 995], the “% inhibition at 1 × 10^-8 M” value is given as 92%. As for `CCCCS(=O)(=O)N(Cc1ccc(C(=O)N[C@@H](CCSC)C(=O)O)c(-c2ccccc2C)c1)CC1CCCCC1` [Example 996], the “% inhibition at 1 × 10^-8 M” value was 80%.

The experiment is the same for the next values; noted with them: Table 6; * footnote 0.1 μM (title: 0.1 mM).
For the compound `CCC(=O)N(CCCc1ccc(C(=O)N[C@@H](CCSC)C(=O)O)c(-c2ccccc2C)c1)C1CCCCC1` [Example 1145], the “% inhibition at 0.1 μM (*)” value worked out at 83%. Consider `CCCCN(CCN1CCCCC1)Cc1ccc(C(=O)N[C@@H](CCSC)C(=O)O)c(-c2ccccc2C)c1` [Example 1196], for which the “% inhibition at 0.1 μM (*)” value was 87%.

The same experiment, now with this note: Table 6; ** footnote 0.01 μM (title: 0.01 mM).
For the compound `CSCC[C@H](NC(=O)c1ccc(CN(CCF)CCC2CCCCC2)cc1-c1ccccc1C)C(=O)O` [Example 1094], the “% inhibition at 0.01 μM (**)” value is recorded as 96%.

Regarding `COCCN(CCC1CCCCC1)Cc1ccc(C(=O)N[C@@H](CCSC)C(=O)O)c(-c2ccccc2C)c1` [Example 1104], the “% inhibition at 0.01 μM (**)” value stood at 89%. For `CCSCC(CC1CCCCC1)NCc1cc(-c2ccccc2C)c(C(=O)N[C@@H](CCSC)C(=O)O)cc1F` (some centres unmarked) [Example 1134], the “% inhibition at 0.01 μM (**)” value was found to be 95%.

Still in this experiment, the particulars now being: read-out: % inhibition at 0.01 μM (**).
As to `CCCCC(OCc1ccc(C(=O)N[C@@H](CCSC)C(=O)O)c(-c2ccccc2C)c1)c1cccc(Cl)c1` (some centres unmarked) [Example 1206, N-[4-(1-(3-chlorophenyl)pentan-1-yloxymethyl)-2-(2-methylphenyl)benzoyl]methionine lithium salt], the inhibition at 0.01 µM was determined as 63%.

Still in this experiment, the particulars now being: read-out: % inhibition at 0.01 μM (**); Table 6; ** footnote 0.01 μM (title: 0.01 mM).
Take `CSCC[C@H](NC(=O)c1ccc(CO[C@H](CO)CC2CCCCC2)cc1-c1ccccc1C)C(=O)O` [Example 1049, N-[4-(3-cyclohexyl-1-hydroxyprop-2-yloxymethyl)-2-(2-methylphenyl)benzoyl]methionine, lithium salt]: the inhibition at 0.01 µM amounted to 93%. In the case of `COCCOCOC[C@H](CC1CCCCC1)OCc1ccc(C(=O)N[C@@H](CCSC)C(=O)O)c(-c2ccccc2C)c1` [Example 1050, N-[4-(3-cyclohexyl-1-(2-methoxyethoxymethyleneoxy)prop-2-yloxymethyl)-2-(2-methylphenyl)benzoyl]methionine, lithium salt], the inhibition at 0.01 µM amounted to 62%. As to `COc1ccc(COC[C@H](CC2CCCCC2)OCc2ccc(C(=O)N[C@@H](CCSC)C(=O)O)c(-c3ccccc3C)c2)cc1` [Example 1051, N-[4-(3-cyclohexyl-1-(4-methoxybenzyloxy)prop-2-yloxymethyl)-2-(2-methylphenylbenzoyl]methionine, lithium salt], the inhibition at 0.01 µM worked out at 79%. Still for that read-out and setting: the result for `CSCC[C@H](NC(=O)c1ccc(CO[C@@H](CC2CCCCC2)C(=O)N2CCCCC2)cc1-c1ccccc1C)C(=O)O` [Example 1052, N-[4-(3-cyclohexyl-N-piperidin-1-ylpropion-2-yloxymethyl)-2-(2-methylphenyl)benzoyl]methionine, lithium salt] reads 91%. With `CSCC[C@H](NC(=O)c1ccc(CO[C@@H](CC2CCCCC2)C(=O)N2CCOCC2)cc1-c1ccccc1C)C(=O)O` [Example 1053, N-[4-(3-cyclohexyl-N-morpholin-4-ylpropion-2-yloxymethyl)-2-(2-methylphenyl)benzoyl]methionine, lithium salt], the inhibition at 0.01 µM was found to be 60%. Regarding `CSCC[C@H](NC(=O)c1ccc(CO[C@@H](CC2CCCCC2)C(=O)N2CCSCC2)cc1-c1ccccc1C)C(=O)O` [Example 1054, N-[4-(3-cyclohexyl-N-thiomorpholin-4-ylpropion-2-yloxymethyl)-2-(2-methylphenyl)benzoyl]methionine, lithium salt], the inhibition at 0.01 µM amounted to 89%. In the case of `CSCC[C@H](NC(=O)c1ccc(CO[C@@H](CC2CCCCC2)C(=O)N2CC[S+]([O-])CC2)cc1-c1ccccc1C)C(=O)O` [Example 1055, N-[4-(3-cyclohexyl-N-thiomorpholin-S-oxide-4-ylpropion-2-yloxymethyl)-2-(2-methylphenyl)benzoyl]methionine, lithium salt], the inhibition at 0.01 µM stood at 85%.

For `CSCC[C@H](NC(=O)c1ccc(COCc2ccc(C3CCCCC3)o2)cc1-c1ccccc1C)C(=O)O` [Example 1090, [4-(2-(5-cyclohexylfuranyl)methoxymethyl)-2-(2-methylphenyl)-benzoyl]methionine, lithium salt], the inhibition at 0.01 µM was 81%.

As to `CSCC[C@H](NC(=O)c1ccc(COC(CC2CCCCC2)c2scnc2C)cc1-c1ccccc1C)C(=O)O` (some centres unmarked) [Example 1097, N-[4-(1-(4-methylthiazol-5-yl)-2-cyclohexylethoxy)methyl)-2-(2-methylphenyl)benzoyl]methionine lithium salt], the inhibition at 0.01 µM came to 80%. On the same count and under the same terms, the result for `CSCC[C@H](NC(=O)c1ccc(COCC2CCCN2C(=O)OCC2CCCCC2)cc1-c1ccccc1C)C(=O)O` (some centres unmarked) [Example 1129, N-[4-(N-cyclohexylmethoxycarbonylpyrrolin-2-ylmethoxymethyl)-2-(2-methylphenyl)benzoyl]methionine Sodium salt] reads 92%.

The experiment is the same for the next values; noted with them: read-out: % inhibition at 0.1 μM (*).
Take `CSCC[C@H](NC(=O)c1ccc(COC(CCC2CCCCC2)c2cccc(Cl)c2)cc1-c1ccccc1C)C(=O)O` (some centres unmarked) [Example 1207, N-[4-(1-(3-chlorophenyl)-3-cyclohexylpropan-1-yloxymethyl)-2-(2-methylphenyl)benzoyl]methionine lithium salt]: the inhibition at 0.1 µM came out at 91%.

`CCCCC(OCc1ccc(C(=O)N[C@@H](CCSC)C(=O)O)c(-c2ccccc2C)c1)c1cccc(OC)c1` (some centres unmarked) [Example 1208, N-[4-(1-(3-Methoxyphenyl)pentan-1-yloxymethyl)-2-(2-methylphenyl)benzoyl]methionine lithium salt]: the inhibition at 0.1 µM worked out at 89%. `CCCOc1cccc(COCc2ccc(C(=O)N[C@@H](CCSC)C(=O)O)c(-c3ccccc3C)c2)c1` [Example 1209, N-[4-(3-(1-Propoxy)benzyloxymethyl)-2-(2-methylphenyl)benzoyl]methionine lithium salt]: the inhibition at 0.1 µM is 87%.

The experiment is the same for the next values; noted with them: read-out: % inhibition at 0.1 μM (*); Table 6; * footnote 0.1 μM (title: 0.1 mM).
With `CSCC[C@H](NC(=O)c1ccc(COCc2ccccc2CO)cc1-c1ccccc1C)C(=O)O` [Example 1043, N-[4-(2-hydroxymethylbenzyloxymethyl)-2-(2-methylphenyl)benzoyl]methionine,lithium salt], the inhibition at 0.1 µM stood at 90%. As to `CSCC[C@H](NC(=O)c1ccc(COCc2cccc(CO)c2)cc1-c1ccccc1C)C(=O)O` [Example 1044, N-[4-(3-hydroxymethylbenzyloxymethyl)-2-(2-methylphenyl)benzoyl]methionine,lithium salt], the inhibition at 0.1 µM is 76%.

With `CSCC[C@H](NC(=O)c1ccc(COCc2ccc(CO)cc2)cc1-c1ccccc1C)C(=O)O` [Example 1045, N-[4-(4-hydroxymethylbenzyloxymethyl)-2-(2-methylphenyl)benzoyl]methionine,lithium salt], the inhibition at 0.1 µM was 86%. On to `CCCCC(OCc1ccc(C(=O)N[C@@H](CCSC)C(=O)O)c(-c2ccccc2C)c1)c1scnc1C` (some centres unmarked) [Example 1095, N-[4-(1-(4-methylthiazol-5-yl)pentyloxy)methyl)-2-(2-methylphenyl)benzoyl]methionine lithium salt], for which the inhibition at 0.1 µM turned out to be 76%. As to `CSCC[C@H](NC(=O)c1ccc(COC(CC2CCCCC2)c2sc(C)nc2C)cc1-c1ccccc1C)C(=O)O` (some centres unmarked) [Example 1096, N-[4-(1-(2,4-dimethylthiazol-5-yl)-2-cyclohexylethoxy)methyl)-2-(2-methylphenyl)benzoyl]methionine lithium salt], the inhibition at 0.1 µM is 86%. As for `CCCCC(OCc1ccc(C(=O)N[C@@H](CCSC)C(=O)O)c(-c2ccccc2C)c1)c1sc(C)nc1C` (some centres unmarked) [Example 1098, N-[4-1-(2,4-dimethylthiazol-5-yl)pentyloxy)methyl-2-(2-methylphenyl)benzoyl]methionine lithium salt], the inhibition at 0.1 µM is 60%.

Consider `CSCC[C@H](NC(=O)c1ccc(COCC2CCCN2C(=O)OCc2ccccc2)cc1-c1ccccc1C)C(=O)O` (some centres unmarked) [Example 1128, lithium salt], for which the inhibition at 0.1 µM was 86%. With `CSCC[C@H](NC(=O)c1ccc(CCC(=O)OC2CCCCC2)cc1-c1ccccc1C)C(=O)O` [Example 1152, N-[4-(cyclohexyloxycarbonylethyl)-2-(2-methylphenyl)benzoyl]methionine], the inhibition at 0.1 µM amounted to 96%. Still for that read-out and setting: the result for `CSCC[C@H](NC(=O)c1ccc(CCC(=O)OCC2CCCCC2)cc1-c1ccccc1C)C(=O)O` [Example 1153, N-[4-(cyclohexylmethoxycarbonylethyl)-2-(2-methylphenyl)benzoyl]methionine] reads 89%; that for `CCCCC(CCC1CCCCC1)OCc1ccc(C(=O)N[C@@H](CCSC)C(=O)O)c(-c2ccccc2C)c1` (some centres unmarked) [Example 1192, N-[4-(1-Cyclohexylheptan-3-yloxymethyl-2-(2-methylphenyl)benzoyl]methioninelithium salt], 91%.

The same experiment, now with this note: read-out: % inhibition at 1 × 10^-8 M; Table 4; 1 × 10^-8 M.
Regarding `CSCC[C@H](NC(=O)c1ccc(CO[C@H](CSC(C)(C)C)Cc2ccccc2)cc1-c1ccccc1C)C(=O)O` [Example 994, N-[4-(1-t-butylthio-3-phenylprop-2-oxymethyl)-2-(2-methylphenyl)benzoyl]methionine], the inhibition at 0.01 µM was 83%.
